Reference: PMC10791743, “Selective CK1α degraders exert antiproliferative activity against a broad range of human cancer cell lines” (Nature Communications, 2024)
“And” between values parts separate entries of the source, which are not always exact repeats. Equal values may be shown once.

Columns and labels:
Format in all cases: cell-based, human
MOLM-13 cells [1] = experiment: Annexin-V staining for apoptosis, wild type MOLM-13; settings: for total apoptosis, flow cytometry: MOLM-13; for Late apoptosis, flow cytometry / Early apoptosis, flow cytometry: WT
Procedure: (§1) Wild type and CRBN^−/− MOLM-13 cells were grown in 12-well plates (TPP, Techno Plastic Products AG) with 500,000 cells per well in 2 ml total media volume. Cells were treated with 1 μl/ml DMSO or 1 μM compound in triplicate, and incubated for 24 or 72 h at 37 °C. To prepare samples, this buffer was used: 10 mM HEPES, 0.14 M NaCl, 2.5 mM CaCl2 pH 7.4, 2% v/v FBS in UltraPure water (Invitrogen). After incubation, samples were collected in 5-ml tubes for flow cytometry (Falcon). Single-stain controls consisted of ~150 μl of multiple samples combined. Wells were washed with 1 ml of buffer that was added to the corresponding sample tube. Cells were centrifuged at 500×g for 5 min at 4 °C to form a pellet. Supernatant was decanted and cells were washed again with 3 ml of buffer, then centrifuged. After decanting the supernatant, 3 μl of APC-conjugated anti-Annexin-V antibody (BioLegend) was added to each tube in the residual buffer left behind. Samples were mixed by vortex and incubated at room temperature in the dark for 20 min. Samples were then washed and centrifuged a final time, decanting the supernatant and blotting the tubes to remove residual buffer. 50 μl of buffer with DAPI was added to all appropriate samples and mixed, then analyzed by flow cytometry.
(§2) Supplementary Fig. 13: Gating for Annexin V flow cytometry analysis. Total cells were gated to remove cell debris, followed by single cell gating on the FSC-A/FSC-H diagonal. Within the single […]
(§3) Live cells are negative for both fluorescent markers, DAPI positive/APC negative cells are necrotic, APC positive/DAPI negative cells are still alive but in the early stages of apoptosis, and double positive cells are dead via apoptosis. Percentages of early and late apoptosis were plotted in supplementary figures 4 and 5.
(§4) (1 picture or pasted object on this page, not shown here)

CRBN−/− MOLM-13 cells [2] = experiment: Annexin-V staining for apoptosis, CRBN−/− MOLM-13; settings: for Late apoptosis, flow cytometry / Early apoptosis, flow cytometry: CRBN-/-; for total apoptosis, flow cytometry: MOLM-13 CRBN-/-
Procedure: as §1, §2, §3, §4

CRBN−/− MOLM-13 cells [3] = experiment: Wild type versus CRBN−/− MOLM-13 cells (viability, CRBN dependence); parameters: key to cell viability, dose-response replicate values: % viability = 100 − % activity (RLU normalized to negative control); settings: for cell viability, dose-response replicate values: MOLM-13 CRBN KO
From the text: Having identified SJ7095 as a compound with a potent antiproliferative effect in MOLM-13 cells, we next examined whether the observed effect was CRBN-dependent. […] In an orthogonal approach, we tested SJ7095 in wild-type and CRBN-knockout MOLM-13 cells in a cell viability assay (Supplementary Fig. 1b).
CRBN^−/− MOLM-13 cells were created using CRISPR-Cas9 technology. Briefly, 1 million MOLM-13 cells were transiently transfected with precomplexed ribonuclear proteins (RNPs) consisting of 400 pmol of chemically modified sgRNA (Synthego), 135pmol of SpCas9 protein (St. Jude Protein Production Core), and 500 ng of pMaxGFP (Lonza) via nucleofection (Lonza, 4D-Nucleofector™ X-unit) using solution SF and program EO100 in a 100 µl cuvette according to the manufacturer’s recommended protocol. Transfected cells (GFP+) were single-cell sorted by flow cytometry (St. Jude Flow Cytometry and Cell Sorting Shared Resource) into 96-well tissue culture-treated plates 5 days post nucleofection. Cells were clonally expanded and screened for the desired targeted modification (out-of-frame indels) via targeted deep sequencing using gene-specific primers with partial Illumina adapter overhangs as previously described. Genotyping of clones was performed using CRIS.py[59]. Knockout clones were identified as clones containing only out-of-frame indels. PowerPlex® Fusion System (Promega) was used to confirm final clone identification (Hartwell Center for Biotechnology at St. Jude). All clones tested negative for mycoplasma by the MycoAlert^TMPlus Mycoplasma Detection Kit (Lonza). CRBN knockout confirmed by immunoblot (Supplementary Material).
MOLM-13 cells were plated in Corning 8804BC white 384-well assay plates at the appropriate cell number per well and incubated overnight at 37 °C in a humidified 5 % CO2 incubator. Compounds were transferred to the assay plate from a dose-response plate using a Labcyte Echo 650 Acoustic Liquid Handler (Beckman Coulter , USA). Cytotoxicity was determined following 72 h of incubation using Promega’s CellTiter-Glo reagent according to the manufacturer’s recommendation.
(§5) Luminescence was measured on the Envision plate reader (PerkinElmer, USA). Raw luminescence relative light unit (RLU) values for each compound at each concentration were normalized to obtain % activity using the following equation (1): 100 × [(mean(negctrl) – compound)/(mean (negctrl) – mean (posctrl))]. The % activity was converted to % viability using the following equation (2):
(§6) (100 – % activity), and then pooled from replicate experiments prior to fitting. Here, negctrl and posctrl refer to the negative (DMSO) and positive controls (staurosporine) on each plate. Dose-response curves were fit to the Hill equation using the GraphPad Prism (version 10). […]

MOLM-13 cells [4] = experiment: MOLM-13 cell viability assay (CTG, 72 h); parameters: key to Cell viability in MOLM-13 cells / cell viability, dose-response replicate values: % viability = 100 − % activity, normalized to controls; settings: SJ0040 series
Procedure: The primary screen was performed in 384-well format using the CellTiter Glo (CTG) luminescent cell viability assay (Promega) as previously described. […] After overnight incubation at 37 °C in a humidified 5% CO2 incubator, cells were treated with compounds in dose–response format using a Pintool on a Biomek FX^P Laboratory Automation Workstation (Beckman Coulter). […] Luminescence signal was measured using an EnVision plate reader (PerkinElmer). […]
number per well and incubated overnight at 37 °C in a humidified 5 % CO2 incubator. Compounds were transferred to the assay plate from a dose-response plate using a Labcyte Echo 650 Acoustic Liquid Handler (Beckman Coulter , USA). […]
using Promega’s CellTiter-Glo reagent according to the manufacturer’s recommendation.
as §5, §6

In the case of Cc1cccc(C(=O)Nc2ccc3c(c2)CN(C2CCC(=O)NC2=O)C3=O)c1 (stereo not shown) [SJ0040], the “Treatment-induced cell death (annexin-V)” value (MOLM-13 cells [1]; 1 μM, 72 h, vs DMSO) is reported as “increased cell death”, the “total apoptosis, flow cytometry” value (MOLM-13 cells [1]; SI_Fig 4c, DMSO 9.7, 8.6, 9.8) is reported as 14.9 and 12.6 and 13.6 and the “total apoptosis, flow cytometry” value (MOLM-13 cells [1]; SI_Fig 5c, DMSO 8, 7.6, 6.1) is reported as 33.8 and 33.6 and 34.8. The “Late apoptosis, flow cytometry” value (MOLM-13 cells [1]; SI_Fig 4b, DMSO 3, 2.7, 3) was 4.1 and 3.7 and 4.5, the “Early apoptosis, flow cytometry” value (MOLM-13 cells [1]; SI_Fig 4b, DMSO 6.8, 5.8, 6.8) was 10.8 and 9 and 9.1 and the “Late apoptosis, flow cytometry” value (MOLM-13 cells [1]; SI_Fig 5b, DMSO 1.5, 1.2, 1.2) was 11.1 and 11.7 and 11.8. The “Early apoptosis, flow cytometry” value (MOLM-13 cells [1]; SI_Fig 5b, DMSO 6.5, 6.4, 4.9) was 22.7 and 21.8 and 23.1, the “Effect on viability of CRBN−/− cells (annexin-V)” value (CRBN−/− MOLM-13 cells [2]; 1 μM) was “no effect on the viability” and the “Late apoptosis, flow cytometry” value (CRBN−/− MOLM-13 cells [2]; SI_Fig 4b, DMSO 3.1, 3.5, 3.3) was 3.1 and 2.5 and 2.8. For the same molecule, the “Early apoptosis, flow cytometry” value (CRBN−/− MOLM-13 cells [2]; SI_Fig 4b, DMSO 7.1, 7.5, 7.8) was 7.6 and 5.6 and 6, the “Late apoptosis, flow cytometry” value (CRBN−/− MOLM-13 cells [2]; SI_Fig 5b, DMSO 1.3, 1.9, 2) was 2 and 1.5 and 1.3 and the “Early apoptosis, flow cytometry” value (CRBN−/− MOLM-13 cells [2]; SI_Fig 5b, DMSO 4.6, 5.9, 7.6) was 5.5 and 5.1 and 4.5. The “total apoptosis, flow cytometry” value (CRBN−/− MOLM-13 cells [2]; SI_Fig 4c, DMSO 10.2, 11.1, 11.2) was 10.6 and 8.1 and 8.8, the “total apoptosis, flow cytometry” value (CRBN−/− MOLM-13 cells [2]; SI_Fig 5c, DMSO 5.8, 7.8, 9.6) was 7.5 and 6.5 and 5.9 and the viability at 0.00126002 µM (CRBN−/− MOLM-13 cells [3]; Homo sapiens, MOLM-13, MOLM-13 CRBN KO, Conc 0.00126002 uM, read-out: cell viability, dose-response replicate values) was 97.2%. It also gave a viability at 0.0113402 µM (CRBN−/− MOLM-13 cells [3]; Homo sapiens, MOLM-13, MOLM-13 CRBN KO, Conc 0.0113402 uM, read-out: cell viability, dose-response replicate values) of 96.7%, a viability at 0.0340206 µM (CRBN−/− MOLM-13 cells [3]; Homo sapiens, MOLM-13, MOLM-13 CRBN KO, Conc 0.0340206 uM, read-out: cell viability, dose-response replicate values) of 93.1% and a viability at 0.102062 µM (CRBN−/− MOLM-13 cells [3]; Homo sapiens, MOLM-13, MOLM-13 CRBN KO, Conc 0.102062 uM, read-out: cell viability, dose-response replicate values) of 89.2%. For the same molecule, the viability at 0.306185 µM (CRBN−/− MOLM-13 cells [3]; Homo sapiens, MOLM-13, MOLM-13 CRBN KO, Conc 0.306185 uM, read-out: cell viability, dose-response replicate values) was 88.4%, the viability at 0.918556 µM (CRBN−/− MOLM-13 cells [3]; Homo sapiens, MOLM-13, MOLM-13 CRBN KO, Conc 0.918556 uM, read-out: cell viability, dose-response replicate values) was 97.5% and the viability at 2.75567 µM (CRBN−/− MOLM-13 cells [3]; Homo sapiens, MOLM-13, MOLM-13 CRBN KO, Conc 2.75567 uM, read-out: cell viability, dose-response replicate values) was 84.5%. For the same molecule, the viability at 8.267 µM (CRBN−/− MOLM-13 cells [3]; Homo sapiens, MOLM-13, MOLM-13 CRBN KO, Conc 8.267 uM, read-out: cell viability, dose-response replicate values) was 48.7%, the “cell viability, dose-response replicate values” (CRBN−/− MOLM-13 cells [3]; Conc 0.00126002 uM) was 101.892 and 99.1853 and the “cell viability, dose-response replicate values” (CRBN−/− MOLM-13 cells [3]; Conc 0.00378006 uM) was 77.9399 and 92.8153 and 102.961. The “cell viability, dose-response replicate values” (CRBN−/− MOLM-13 cells [3]; Conc 0.0113402 uM) was 90.8518 and 98.3247, the “cell viability, dose-response replicate values” (CRBN−/− MOLM-13 cells [3]; Conc 0.0340206 uM) was 99.2582 and 100.85 and the “cell viability, dose-response replicate values” (CRBN−/− MOLM-13 cells [3]; Conc 0.102062 uM) was 95.1601 and 101.209. For the same molecule, the “cell viability, dose-response replicate values” (CRBN−/− MOLM-13 cells [3]; Conc 0.306185 uM) was 92.1664 and 101.967, the “cell viability, dose-response replicate values” (CRBN−/− MOLM-13 cells [3]; Conc 0.918556 uM) was 93.1747 and 96.6395 and the “cell viability, dose-response replicate values” (CRBN−/− MOLM-13 cells [3]; Conc 2.75567 uM) was 84.7802 and 96.7661. The “cell viability, dose-response replicate values” (CRBN−/− MOLM-13 cells [3]; Conc 8.267 uM) was 53.0309 and 66.5957, the “Cell viability in MOLM-13 cells” value (MOLM-13 cells [4]; Conc 0.000596098) was 72.251 and 62.2023 and 81.3879 and the “Cell viability in MOLM-13 cells” value (MOLM-13 cells [4]; Conc 0.0017883) was 82.0109 and 75.8813 and 72.6272. The “Cell viability in MOLM-13 cells” value (MOLM-13 cells [4]; Conc 0.00536488) was 61.7374 and 60.0676 and 62.6116, the “Cell viability in MOLM-13 cells” value (MOLM-13 cells [4]; Conc 0.0160947) was 47.3097 and 40.7507 and 48.8062 and the “Cell viability in MOLM-13 cells” value (MOLM-13 cells [4]; Conc 0.048284) was 27.7074 and 26.3493 and 30.1451. The “Cell viability in MOLM-13 cells” value (MOLM-13 cells [4]; Conc 0.144852) was 14.8484 and 15.2529 and 14.8047, the “Cell viability in MOLM-13 cells” value (MOLM-13 cells [4]; Conc 0.434556) was 9.851 and 9.013 and 9.549 and the “Cell viability in MOLM-13 cells” value (MOLM-13 cells [4]; Conc 1.30367) was 6.737 and 6.253 and 6.807. The “Cell viability in MOLM-13 cells” value (MOLM-13 cells [4]; Conc 3.911) was 4.756 and 5.128 and 7.933.
